This is an account of results in patent US20090258097A1, “EXTRACTS AND COMPOUNDS FROM "AGAPANTHUS AFRICANUS" AND THEIR USE AS BIOLOGICAL PLANT PROTECTING AGENTS” (AGRARFORUM AG, priority 2005, published 2009).

The test system of one experiment is Fusarium oxysporum. The experiment is described as follows: In vitro mycelial growth inhibition (agar dilution). Type of experiment: cell-based. Particulars: for concentration showing strong antifungal activity: purified compounds. (In agar dilution, organisms are placed on agar that contains the substance at set levels.)
Another experiment relates to Sporisorium sorghi. Briefly: Sorghum covered kernel smut field trial (seed treatment). Type of experiment: in vivo. The following applies: extract 2.0 g/l, Thiram 0.25% (w/w).
The subject of a further experiment is Sporisorium cruentum. The experiment is described as follows: Sorghum loose kernel smut field trial (seed treatment). Type of experiment: in vivo. Particulars: extract 2.0 g/l, Thiram 0.25% (w/w).
The mark [1] stands for this setting: pure compounds from the most active P-TLC root fraction, following acidification.

In the case of “3-[{O-β-D-glucopyranosyl-(1″-3′)-α-L-rhamnosyl-(1″-2′)}-β-D-glucopyranosyloxy]agapanthegenin [Compound 1]”, the “% mycelial growth inhibition of F. oxysporum” value (“% mycelial growth inhibition” below) in the experiment on Fusarium oxysporum (pure compound from the most active P-TLC aerial plant part fraction) and with Fusarium oxysporum (setting [1]) was 100% each time. Moreover, in the experiment with Fusarium oxysporum, the “concentration showing strong antifungal activity” value is “approximately 125 μg/ml”.

For the compound `CC(=O)Oc1cc(OC(C)=O)c2c(c1)OC(c1ccc(OC(C)=O)c(OC(C)=O)c1)CC2=O` (centres unmarked) [Compound 8, 5,7,3′4′-tetra-O-acetylflavanone], the “% mycelial growth inhibition” value with Fusarium oxysporum (setting [1]) was found to be 93%. The “concentration showing strong antifungal activity” value in the experiment with Fusarium oxysporum is “about 625 μg/ml”.

As to `CC(=O)Oc1ccc(/C=C/C(=O)c2ccc(OC(C)=O)cc2OC(C)=O)cc1` [Compound 9, trans-4,2′,4′-Tri-O-acetylchalcone], in the experiment on Fusarium oxysporum (setting [1]), the “% mycelial growth inhibition” value is on record as 97%. In addition, the “concentration showing strong antifungal activity” value in the experiment with Fusarium oxysporum is given as “about 625 μg/ml”.

Take `CN(C)C(=S)SSC(=S)N(C)C` [Thiram]: in the experiment with Sporisorium sorghi, the “% mean smut incidence” value was determined as 0b % and the “Yield (ton ha^−1)” value was determined as 2.6ab ton ha^−1. Also, in the experiment with Sporisorium cruentum, the “% mean smut incidence” value is reported as 0b % and the “Yield (ton ha^−1)” value amounted to 2.1ab ton ha^−1.
